The values below come from ChEMBL document CHEMBL4414602, “Bipolaricins A-I, Ophiobolin-Type Tetracyclic Sesterterpenes from a Phytopathogenic Bipolaris sp. Fungus” (J Nat Prod, 2019).

Structures are written as SMILES. The source made the active and inactive calls. The calls are words filed in the database; no cut-off is given here.

The subject of one data set is MDA-MB-231. Put plainly: Cytotoxicity against human MDA-MB-231 cells by MTT assay. Format: cell-based.
In data set [1] the test system is RAW264.7. Put plainly: Antiinflammatory activity in mouse RAW264.7 cells assessed as inhibition of LPS-induced nitric oxide production pretreated for 2 hrs followed by LPS challenge and measured after 12 hrs by Griess assay. The data set is classed as functional, cell-based.
A further data set has as its system SW1990. Kind of data set: Cytotoxicity against human SW1990 cells by MTT assay. Format: cell-based.
A further data set relates to A549. Kind of data set: Cytotoxicity against human A549 cells by MTT assay. Format: cell-based.
A further data set deals with HepG2. Put plainly: Cytotoxicity against human HepG2 cells by MTT assay. Format: cell-based.
Data set [2] has as its system RAW264.7. Put plainly: Cytotoxicity against mouse RAW264.7 cells at 40 uM by MTT assay. The data set is classed as cell-based. Conditions: raw264.7, 40 µM.
In data set [3] the test system is RAW264.7. Kind of data set: Antiinflammatory activity in mouse RAW264.7 cells assessed as inhibition of LPS-induced IL-1beta production at 5 to 10 uM pretreated for 2 hrs followed by LPS challenge and measured after 12 hrs by ELISA. The data set is classed as functional, cell-based.
The test system of data set [4] is RAW264.7. Put plainly: Antiinflammatory activity in mouse RAW264.7 cells assessed as inhibition of LPS-induced RANTES production at 5 to 10 uM pretreated for 2 hrs followed by LPS challenge and measured after 12 hrs by ELISA. The data set is classed as functional, cell-based.
Data set [5] has as its target T1, 3-hydroxy-3-methylglutaryl-coenzyme A reductase (Homo sapiens, UniProt P04035).
T1 sequence (P04035 whole entry): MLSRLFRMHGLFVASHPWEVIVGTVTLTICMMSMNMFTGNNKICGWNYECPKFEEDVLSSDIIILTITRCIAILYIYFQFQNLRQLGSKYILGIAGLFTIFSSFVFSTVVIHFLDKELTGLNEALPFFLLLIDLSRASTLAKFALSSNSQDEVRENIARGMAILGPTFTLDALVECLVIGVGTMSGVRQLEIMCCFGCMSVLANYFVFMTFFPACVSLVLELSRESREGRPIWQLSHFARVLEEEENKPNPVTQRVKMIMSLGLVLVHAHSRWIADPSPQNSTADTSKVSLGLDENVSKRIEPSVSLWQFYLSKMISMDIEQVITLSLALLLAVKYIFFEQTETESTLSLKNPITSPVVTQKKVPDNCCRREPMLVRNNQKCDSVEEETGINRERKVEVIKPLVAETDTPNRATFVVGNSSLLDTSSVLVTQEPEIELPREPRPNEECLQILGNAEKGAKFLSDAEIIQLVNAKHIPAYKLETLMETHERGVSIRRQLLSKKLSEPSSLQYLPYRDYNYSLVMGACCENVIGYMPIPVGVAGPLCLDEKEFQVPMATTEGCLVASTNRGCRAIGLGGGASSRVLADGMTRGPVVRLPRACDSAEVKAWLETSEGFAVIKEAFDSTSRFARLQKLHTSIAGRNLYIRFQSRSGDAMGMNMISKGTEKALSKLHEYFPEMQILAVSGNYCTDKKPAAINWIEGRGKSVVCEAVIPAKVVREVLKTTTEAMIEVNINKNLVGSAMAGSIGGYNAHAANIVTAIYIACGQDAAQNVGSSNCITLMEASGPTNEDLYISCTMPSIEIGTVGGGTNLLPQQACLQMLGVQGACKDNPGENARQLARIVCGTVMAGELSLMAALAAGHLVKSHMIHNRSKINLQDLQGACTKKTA
Kind of data set: Inhibition of human HMGR using HMGCoA as substrate measured after 15 mins in presence of NADPH by UV microplate reader analysis.

For data set [6], the system named is RAW264.7. Kind of data set: Antiinflammatory activity in mouse RAW264.7 cells assessed as inhibition of LPS-induced MIP-1beta production at 5 to 10 uM pretreated for 2 hrs followed by LPS challenge and measured after 12 hrs by ELISA. The data set is classed as functional, cell-based.
In data set [7] the test system is RAW264.7. Put plainly: Antiinflammatory activity in mouse RAW264.7 cells assessed as inhibition of LPS-induced TNFalpha production at 5 to 10 uM pretreated for 2 hrs followed by LPS challenge and measured after 12 hrs by ELISA. The data set is classed as functional, cell-based.
Data set [8] concerns RAW264.7. Put plainly: Antiinflammatory activity in mouse RAW264.7 cells assessed as increase of LPS-induced IL-3 production at 5 to 10 uM pretreated for 2 hrs followed by LPS challenge and measured after 12 hrs by ELISA. Format: functional, cell-based.
In data set [9] the test system is RAW264.7. Kind of data set: Antiinflammatory activity in mouse RAW264.7 cells assessed as increase in LPS-induced HO-1 protein level pretreated for 2 hrs followed by LPS challenge and measured after 12 hrs by Western blot analysis. The data set is classed as functional, cell-based.
Data set [10] addresses Transcription factor p65 (Mus musculus) (UniProt Q04207). Put plainly: Inhibition of LPS-induced NF-kappaB p65 translocation in mouse RAW264.7 cells at 5 to 10 uM pretreated for 2 hrs followed by LPS challenge measured after 12 hrs by DAPI staining based fluorescence microscopic analysis. The data set is classed as cell-based.

Chain of Transcription factor p65 (Mus musculus) (Q04207 whole entry): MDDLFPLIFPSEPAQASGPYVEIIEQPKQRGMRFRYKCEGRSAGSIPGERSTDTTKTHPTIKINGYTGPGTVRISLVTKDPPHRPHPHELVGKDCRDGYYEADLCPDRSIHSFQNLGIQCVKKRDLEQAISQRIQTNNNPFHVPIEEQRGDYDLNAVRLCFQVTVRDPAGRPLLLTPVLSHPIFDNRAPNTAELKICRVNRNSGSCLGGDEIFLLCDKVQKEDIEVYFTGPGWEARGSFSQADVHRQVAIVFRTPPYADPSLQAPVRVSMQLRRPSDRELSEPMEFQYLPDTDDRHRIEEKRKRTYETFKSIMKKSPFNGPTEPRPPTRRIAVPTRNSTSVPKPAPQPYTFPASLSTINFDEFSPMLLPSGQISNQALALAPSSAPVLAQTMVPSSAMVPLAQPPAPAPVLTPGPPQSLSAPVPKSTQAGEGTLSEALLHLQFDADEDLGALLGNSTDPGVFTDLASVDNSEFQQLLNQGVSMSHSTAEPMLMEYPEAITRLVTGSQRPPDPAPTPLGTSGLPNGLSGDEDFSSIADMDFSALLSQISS

Turning to `CC(C)=C[C@H]1C[C@H](C)[C@]2(CC[C@]3(C)C[C@@H]4C(C)=CC(=O)[C@H]4/C(C(=O)O)=C\C[C@H]32)O1`, the IC50 in the data set with MDA-MB-231, in the data set with RAW264.7 [1], with SW1990, in the data set with A549 and in the data set on HepG2 was over 40 µM throughout. The Activity result in the data set on RAW264.7 [2] is reported as “Non-Toxic”.
As for `CC(C)=C[C@H]1C[C@H](C)[C@]2(CC[C@]3(C)C[C@@H]4C(C)=CC(=O)/C4=C(\CO)[C@H](O)C[C@H]32)O1`, the IC50 in the data set with MDA-MB-231 is over 40 µM; in the data set on RAW264.7 [1], 20 µM; with SW1990, over 40 µM; with A549, over 40 µM; with HepG2 it was over 40 µM. Besides, in the data set with RAW264.7 [2], the Activity entry was “Non-Toxic”.
As for `CC(C)=C[C@H]1C[C@H](C)[C@]2(CC[C@]3(C)C[C@@H]4C(C)=CC(=O)/C4=C(\C(=O)O)[C@@H](O)C[C@H]32)O1`, the IC50 with MDA-MB-231, in the data set on RAW264.7 [1], with SW1990, in the data set with A549 and with HepG2 was over 40 µM each time. Moreover, the Activity entry in the data set on RAW264.7 [2] is on record as “Non-Toxic”.
Take `CC1=CC(=O)[C@H]2/C(C=O)=C\C[C@@H]3[C@](C)(CC[C@@]34O[C@@H](/C=C(\C)CO)C[C@@H]4C)C[C@H]12`: the IC50 in the data set with MDA-MB-231 is over 40 µM; in the data set on RAW264.7 [1], 19 µM; with SW1990, over 40 µM; with A549 it was over 40 µM; in the data set on HepG2 it was over 40 µM. For the same compound, the Activity entry in the data set on RAW264.7 [2] is listed as “Non-Toxic”.
Take `CC1=CC(=O)/C2=C(\CO)[C@@H](O)C[C@@H]3[C@](C)(CC[C@@]34O[C@@H](/C=C(\C)CO)C[C@@H]4C)C[C@H]12`: the IC50 was over 40 µM in the data set on MDA-MB-231; 19 µM with RAW264.7 [1]; over 40 µM with SW1990; over 40 µM with A549; over 40 µM with HepG2. Also, the Activity result with RAW264.7 [2] is listed as “Non-Toxic”.
Consider `CC(C)=C[C@H]1C[C@H](C)[C@]2(CC[C@]3(C)C[C@@H]4C(C)=CC(=O)[C@H]4/C(C=O)=C\C[C@H]32)O1` [3-ANHYDRO-6-EPI-OPHIOBOLIN A], for which the inhibition entry (in the data set on RAW264.7 [3]; in the data set on RAW264.7 [4]; in the data set on RAW264.7 [6]; in the data set on RAW264.7 [7]; in [10]) was “Active” throughout. Also, the IC50 is over 40 µM in the data set on MDA-MB-231; 5.1 µM in the data set on RAW264.7 [1]; 8.4 µM in data set [5]; over 40 µM with SW1990; over 40 µM in the data set with A549; over 40 µM in the data set on HepG2. The Activity result is “Non-Toxic” with RAW264.7 [2] and “Dose-dependent effect” in the data set on RAW264.7 [9]. For the same compound, the result in the data set with RAW264.7 [8] was Active.
On to `CC(C)=C[C@H]1C[C@H](C)[C@]2(CC[C@]3(C)C[C@@H]4C(C)=CC(=O)/C4=C(\CO)[C@@H](O)C[C@H]32)O1`, for which the IC50 is over 40 µM with MDA-MB-231; 6.7 µM in the data set with RAW264.7 [1]; over 40 µM with SW1990; over 40 µM with A549; over 40 µM with HepG2. In the data set on RAW264.7 [2], the Activity result is “Non-Toxic”.
Take `CC1=CC(=O)/C2=C(\CO)CC[C@@H]3[C@](C)(CC[C@@]34O[C@@H](/C=C(\C)CO)C[C@@H]4C)C[C@H]12`: the IC50 in the data set on MDA-MB-231, in the data set with RAW264.7 [1], in the data set on SW1990, in the data set with A549 and with HepG2 was over 40 µM each time. The Activity result in the data set on RAW264.7 [2] is given as “Non-Toxic”.
In the case of `CC1=CC(=O)[C@H]2/C(C)=C\C[C@@H]3[C@](C)(CC[C@@]34O[C@@H](/C=C(\C)CO)C[C@@H]4C)C[C@H]12`, the IC50 in the data set on MDA-MB-231, with RAW264.7 [1], in the data set on SW1990, in the data set on A549 and in the data set on HepG2 was over 40 µM each time. Besides, in the data set on RAW264.7 [2], the Activity entry is given as “Non-Toxic”.
`CC(C)=C[C@H]1C[C@H](C)[C@]2(CC[C@]3(C)C[C@H]4[C@H](CC[C@@]4(C)O)/C(CO)=C\C[C@H]32)O1`: the IC50 in the data set on MDA-MB-231, in the data set on RAW264.7 [1], with SW1990, in the data set on A549 and with HepG2 was over 40 µM in each case. Further, in the data set on RAW264.7 [2], the Activity result is recorded as “Non-Toxic”.
Take `COc1ccc2c(c1)c(CC(=O)O)c(C)n2C(=O)c1ccc(Cl)cc1` [INDOMETHACIN]: the IC50 in the data set on RAW264.7 [1] stood at 8.8 µM.
For `CC(C)=C[C@H]1C[C@H](C)[C@]2(CC[C@]3(C)C[C@@H]4C(CO)=CC(=O)[C@H]4/C(C)=C\C[C@H]32)O1`, the IC50 in the data set with MDA-MB-231, in the data set with RAW264.7 [1], in the data set with SW1990, with A549 and in the data set on HepG2 was over 40 µM in each case. For the same compound, the Activity entry in the data set on RAW264.7 [2] is on record as “Non-Toxic”.
On to `CC1=CC(=O)/C2=C(\CO)[C@H](O)C[C@@H]3[C@](C)(CC[C@@]34O[C@@H](/C=C(\C)CO)C[C@@H]4C)C[C@H]12`, for which the half-inhibitory concentration (IC50) in the data set on MDA-MB-231, in the data set with RAW264.7 [1], with SW1990, in the data set on A549 and with HepG2 was over 40 µM in each case. In addition, the Activity entry in the data set with RAW264.7 [2] is recorded as “Non-Toxic”.
